Experiments:
[1] = molecular target: T1, PAP f39 (PAP248-286) (Homo sapiens, UniProt P15309); assay: isothermal titration calorimetry; type: binding
T1 construct: gene ACP3; synthetic 39-residue peptide fragment 248-286 (GL Biochem), N-terminal Gly, C-terminal Tyr, HFIP-pretreated monomer; 2L3H is only the docking structure of this peptide
T1 sequence (P15309 248-286): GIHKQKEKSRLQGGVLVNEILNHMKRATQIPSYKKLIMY

[2] = molecular target: T1, PAP f39 (PAP248-286); assay: ThT fluorescence aggregation assay; type: biochemical; conditions: PBS pH 7.3, 37 °C, 1200 rpm, 96 h; 0.44 mM PAP f39, 0.022 mM NQTrp; inhibition of fibril formation

Compound: O=C1C=C(N[C@@H](Cc2c[nH]c3ccccc23)C(=O)O)C(=O)c2ccccc21 [NQTrp]
- Kd [1]: 5.94 ± 1.26 µM
- % amyloid inhibition at 20:1 (PAP f39:NQTrp) [2]: ~ 70%

Reference: PMC6320874, “Inhibitory Effect of Naphthoquinone-Tryptophan Hybrid towards Aggregation of PAP f39 Semen Amyloid” (Molecules, 2018)
